Experimental data taken from publication PMC5143673 (Innate immunity, 2016).
Non-standard residues stand in square brackets, D forms with d. No end group written: not given here. hCit = NC(=O)NCCCC[C@H](N)C(=O)O

B1: LL-37^C12,15 (LL-37 carbamylated on Lys-12 and Lys-15) (peptide)
peptide: LLGDFFRKSKE[hCit]IG[hCit]EFKRIVQRIKDFLRNLVPRTES

Experiments:
[1] = system: neutrophils
[2] = target: N-HisTag containing ApoA1 (NH-ApoA1) (UniProt P02647); assay: SPR
UniProt P02647, sequence (P02647 19-267): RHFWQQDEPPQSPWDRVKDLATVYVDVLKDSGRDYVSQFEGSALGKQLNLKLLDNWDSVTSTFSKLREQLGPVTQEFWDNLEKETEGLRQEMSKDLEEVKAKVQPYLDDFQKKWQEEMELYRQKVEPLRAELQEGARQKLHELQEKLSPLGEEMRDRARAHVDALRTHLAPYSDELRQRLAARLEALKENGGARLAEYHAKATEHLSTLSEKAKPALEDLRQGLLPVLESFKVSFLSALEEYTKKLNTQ

Molecule | capacity to lyse neutrophils and erythrocytes [1] | fold lower affinity than native LL-37 [2] [fold]
LLGDFFRKSKEKIGKEFKRIVQRIKDFLRNLVPRTES [LL-37] | ability of LL-37^C8 and LL-37^C12,15 to lyse neutrophils and erythrocytes was different | 
B1 |  | 3
